Counter-ions that a name gives are not always drawn.
Assays:
[1] = tablets prepared with polymorph A or with polymorph B; J. Pharmaceutical & Biomedical Analysis, 1994, Vol 12, pp. 173-177; cited from earlier work
[2] = Stability to micronisation of Polymorphs (grinding in ball microniser, DRX); type: physicochemical; conditions: Retsch MM2 ball microniser, 200 mg sample, 80 vibrations/min, 15 minutes
[3] = resistance to compression and/or micronisation; type: physicochemical; conditions: polymorph A compared with polymorph B
[4] = storage stability of zofenopril calcium salt samples (interconversion to polymorph B, by DRX); type: physicochemical
From the text: Determination of polymorph B in the samples of Polymoroh A : The percentage of polymorph B in samples of Polymorph A can easily be evaluated by observation of the X diffractograms (DRX). The region used for the analysis was that for 2θ ranging from 15 to 25. In this region, three peaks were evidenced, respectively I with […], II with 2θ=19.2 and III with 20θ=19.9, and the relative intensities I/III and II/III of various Polymorph A samples containing known amounts of Polymorph B (not above 30%) were measured. A regression equation was thereby obtained, which correlates the intensities of peaks I and II relating to peak III with the percentage of polymorph B present in the samples. The precision and the accuracy of the results obtainable with the above mentioned equation were good and, based on the confidence limits, the minimum amount of polymorph B detectable in polymorph A could be evaluated to be <7%. FIG. 4 reports the relationship between the above mentioned values based on the thus calculated regression equation and the observed values.

Row | SMILES | dissolution rate of tablets [1] | crystalline structure after grinding, according to DRX [2] | resistance to compression and/or micronisation [3] | interconversion to polymorph B ([4]; samples obtained according to the process of the invention) | percentage of polymorph B after storage ([4]; stored for 3 years at 25° C. and 60% relative humidity) | percentage of polymorph B after storage ([4]; stored for 6 months at 40° C. and 75% relative humidity)
1 | C[C@H](CSC(=O)c1ccccc1)C(=O)N1C[C@@H](Sc2ccccc2)C[C@H]1C(=O)O [polymorph A] | could not be differentiated | still keeps the crystalline structure | more resistant to compression and/or micronisation than polymorph B |  |  | 
2 | C[C@H](CSC(=O)c1ccccc1)C(=O)N1C[C@@H](Sc2ccccc2)C[C@H]1C(=O)O [polymorph B] | could not be differentiated | completely loses its crystalline structure |  |  |  | 
3 | C[C@H](CSC(=O)c1ccccc1)C(=O)N1C[C@@H](Sc2ccccc2)C[C@H]1C(=O)O [zofenopril calcium salt, [(4S)-(2S)-3-(benzoylthio)-2-methylpropionyl-4 (phenylthio)-L-proline] calcium salt] |  |  |  | no interconversion to polymorph B | below 7% | below 7%

From patent US6515012B2, “Process for the preparation of zofenopril calcium salt” (Menarini Ricerche S.p.A., priority 1998, dated 2003)
